In test [1] the target is T1, histone deacetylase activity (HeLa nuclear extract).
T1 construct: Histone deacetylase activity from crude nuclear extract derived from HeLa cells was used for screening
The test can be described thus: HDAC fluorescent activity assay (Biomol Fluor de Lys), HeLa nuclear extract. Type of test: biochemical. The settings on record: Fluor de Lys substrate, IC50 range. Here is the method:
The ability of compounds to inhibit histone deacetylase activities was measured using the commercially available HDAC fluorescent activity assay from Biomol. In brief, the Fluor de Lys™ substrate, a lysine with an epsilon-amino acetylation, is incubated with the source of histone deacetylase activity (HeLa nuclear extract) in the presence or absence of inhibitor. Deacetylation of the substrate sensitises the substrate to Fluor de Lys™ developer, which generates a fluorophore. Thus, incubation of the substrate with a source of HDAC activity results in an increase in signal that is diminished in the presence of an HDAC inhibitor.
Data are expressed as a percentage of the control, measured in the absence of inhibitor, with background signal being subtracted from all samples, as follows:— % activity=((S^i−B)/(S^o−B))×100 where S^i is the signal in the presence of substrate, enzyme and inhibitor, S^o is the signal in the presence of substrate, enzyme and the vehicle in which the inhibitor is dissolved, and B is the background signal measured in the absence of enzyme.
IC50 values were determined by non-linear regression analysis, after fitting the results of eight data points to the equation for sigmoidal dose response with variable slope (% activity against log concentration of compound), using Graphpad Prism software.
Histone deacetylase activity from crude nuclear extract derived from HeLa cells was used for screening. The preparation, purchased from 4C (Seneffe, Belgium), was prepared from HeLa cells harvested whilst in exponential growth phase. The nuclear extract is prepared according to Dignam JD1983 Nucl. Acid. Res. 11, 1475-1489, snap frozen in liquid nitrogen and stored at −80° C. The final buffer composition was 20 mM Hepes, 100 mM KCl, 0.2 mM EDTA, 0.5 mM DTT, 0.2 mM PMSF and 20% (v/v) glycerol.

The test system of the next test is Hela cancer cell line. The test can be described thus: Cell inhibition assay (SRB cell viability), Hela. Format: cell-based. The settings on record: 72 h, Hela cells, IC50 range. The procedure: (§1) The corresponding cancer cell lines (Hela, U937 and HUT) growing in log phase were harvested and seeded at 1000 cells/well (200 ul final volume) into 96-well tissue culture plates. Following 24 h of cell growth cells were treated with compounds (final concentration of 20 uM). Plates were then re-incubated for a further 72 h before a sulphorhodamine B (SRB) cell viability assay was conducted according to Skehan 1990 J Natl Canc Inst 82, 1107-1112.
(§2) Data were expressed as a percentage inhibition of the control, measured in the absence of inhibitor, as follows:— % inhibition=100−((S^i/S^o)×100) where S^i is the signal in the presence of inhibitor and S^o is the signal in the presence of DMSO. IC50 values were determined by non-linear regression analysis, after fitting the results of eight data points to the equation for sigmoidal dose response with variable slope (% activity against log concentration of compound), using Graphpad Prism software. […] NT=Not tested

In a further test the test system is U937 cancer cell line. As to the kind of experiment: Cell inhibition assay (SRB cell viability), U937. Format: cell-based. Particulars: 72 h, IC50 range. Here is the method: as §1, §2
Another test relates to HUT cancer cell line. As to the kind of experiment: Cell inhibition assay (SRB cell viability), HUT. The settings on record: HUT cells, 72 h, IC50 range. Format: cell-based. The procedure: as §1, §2
The mark [2] stands for this setting: Homo sapiens, U-937, U937 cells.

Each structure is given as a SMILES string.

The term IC50 denotes the point on the concentration scale where inhibition reaches its midpoint. A high value points to a need for much substance. Take `O=C(CCCCCCC(=O)N1Cc2[nH]c3ccccc3c2C[C@@H]1C(=O)N[C@H](C(=O)OC1CCCC1)c1ccccc1)NO` [Compound 1, (S)-{[(R)-2-(7-Hydroxycarbamoyl-heptanoyl)-2,3,4,9-tetrahydro-1H-beta-carboline-3-carbonyl]-amino}-phenyl-acetic acid cyclopentyl ester]: the IC50 in test [1] was 101 to 1000 nM; in the test on Hela cancer cell line (Homo sapiens, HeLa), over 3.3 µM; in the test on U937 cancer cell line (setting [2]), 0.33 to 3.3 µM; in the test with HUT cancer cell line it was 0.33 to 3.3 µM.
As to `O=C(CCCCCCC(=O)N1Cc2[nH]c3ccccc3c2C[C@H]1C(=O)N[C@H](C(=O)OC1CCCC1)c1ccccc1)NO` [Compound 3, (S)-{[(S)-2-(7-Hydroxycarbamoyl-heptanoyl)-2,3,4,9-tetrahydro-1H-beta-carboline-3-carbonyl]-amino}-phenyl-acetic acid cyclopentyl ester], the IC50 is over 1000 nM in test [1]; over 3.3 µM in the test with Hela cancer cell line (Homo sapiens, HeLa); 0.33 to 3.3 µM in the test with U937 cancer cell line (setting [2]); over 3.3 µM in the test on HUT cancer cell line.
Consider `O=C(CCCCCCC(=O)N1Cc2[nH]c3ccccc3c2C[C@H]1C(=O)N[C@H](C(=O)O)c1ccccc1)NO` [Compound 4, (S)-{[(S)-2-(7-Hydroxycarbamoyl-heptanoyl)-2,3,4,9-tetrahydro-1H-beta-carboline-3-carbonyl]-amino}-phenyl-acetic acid], for which the IC50 in test [1] is 101 to 1000 nM; in the test with Hela cancer cell line (Homo sapiens, HeLa), over 3.3 µM; in the test on U937 cancer cell line (setting [2]) it was over 3.3 µM; in the test with HUT cancer cell line, over 3.3 µM.
For `CCOC(=O)[C@H](Cc1ccccc1)NC(=O)[C@H]1Cc2c([nH]c3ccccc23)CN1C(=O)CCCCCCC(=O)NO` [Compound 5, (S)-2-{[(R)-2-(7-Hydroxycarbamoyl-heptanoyl)-2,3,4,9-tetrahydro-1H-beta-carboline-3-carbonyl]-amino}-3-phenyl-propionic acid ethyl ester], the IC50 in test [1] was in the range of 101 to 1000 nM; in the test on Hela cancer cell line (Homo sapiens, HeLa) it was 0.33 to 3.3 µM; with U937 cancer cell line (setting [2]), 0.33 to 3.3 µM; in the test with HUT cancer cell line, 0.33 to 3.3 µM.
As to `O=C(CCCCCCC(=O)N1Cc2[nH]c3ccccc3c2C[C@@H]1C(=O)N[C@@H](Cc1ccccc1)C(=O)O)NO` [Compound 6, (S)-2-{[(R)-2-(7-Hydroxycarbamoyl-heptanoyl)-2,3,4,9-tetrahydro-1H-beta-carboline-3-carbonyl]-amino}-3-phenyl-propionic acid], the IC50 is under 100 nM in test [1]; over 3.3 µM in the test on Hela cancer cell line (Homo sapiens, HeLa); over 3.3 µM with U937 cancer cell line (setting [2]); over 3.3 µM in the test with HUT cancer cell line.
For the molecule `CCOC(=O)[C@H](Cc1ccccc1)NC(=O)[C@@H]1Cc2c([nH]c3ccccc23)CN1C(=O)CCCCCCC(=O)NO` [Compound 7, (S)-2-{[(S)-2-(7-Hydroxycarbamoyl-heptanoyl)-2,3,4,9-tetrahydro-1H-beta-carboline-3-carbonyl]-amino}-3-phenyl-propionic acid ethyl ester], the IC50 in test [1] was 101 to 1000 nM; in the test with Hela cancer cell line (Homo sapiens, HeLa), over 3.3 µM; with U937 cancer cell line (setting [2]), 0.33 to 3.3 µM; with HUT cancer cell line, 0.33 to 3.3 µM.
`O=C(CCCCCCC(=O)N1Cc2[nH]c3ccccc3c2C[C@H]1C(=O)N[C@@H](Cc1ccccc1)C(=O)O)NO` [Compound 8, (S)-2-{[(S)-2-(7-Hydroxycarbamoyl-heptanoyl)-2,3,4,9-tetrahydro-1H-beta-carboline-3-carbonyl]-amino}-3-phenyl-propionic acid]: the IC50 was 101 to 1000 nM in test [1]; over 3.3 µM in the test with Hela cancer cell line (Homo sapiens, HeLa); over 3.3 µM in the test with U937 cancer cell line (setting [2]); over 3.3 µM in the test with HUT cancer cell line.
Take `O=C(CCCCCCC(=O)N1CCc2c([nH]c3ccccc23)C1C(=O)NC(C(=O)OC1CCCC1)c1ccccc1)NO` [Compound 9, (S)-{[2-(7-Hydroxycarbarnoyl-heptanoyl)-2,3,4,9-tetrahydro-1H-beta-carboline-1-carbonyl]-amino}-phenyl-acetic acid cyclopentyl ester]: the IC50 in test [1] was 101 to 1000 nM; in the test on Hela cancer cell line (Homo sapiens, HeLa), 0.33 to 3.3 µM; with U937 cancer cell line (setting [2]) it was 0.33 to 3.3 µM; in the test with HUT cancer cell line, 0.33 to 3.3 µM.
Consider `O=C(CCCCCCC(=O)N1CCc2c([nH]c3ccccc23)C1C(=O)N[C@H](C(=O)O)c1ccccc1)NO` (stereo partly drawn) [Compound 10, (S)-{[2-(7-Hydroxycarbamoyl-heptanoyl)-2,3,4,9-tetrahydro-1H-beta-carboline-1-carbonyl]amino}-phenyl-acetic acid], for which the IC50 in test [1] is under 100 nM; with Hela cancer cell line (Homo sapiens, HeLa) it was over 3.3 µM; in the test on U937 cancer cell line (setting [2]), over 3.3 µM; with HUT cancer cell line it was over 3.3 µM.
In the case of `COc1ccc2[nH]c3c(c2c1)CCN(C(=O)CCCCCCC(=O)NO)C3C(=O)N[C@H](C(=O)OC1CCCC1)c1ccccc1` (stereo partly drawn) [Compound 11, (S)-{[2-(7-Hydroxycarbamoyl-heptanoyl)-6-methoxy-2,3,4,9-tetrahydro-1H-beta-carboline-1-carbonyl]-amino}-phenyl-acetic acid cyclopentyl ester], the IC50 in test [1] lay in the range of 101 to 1000 nM; in the test with Hela cancer cell line it was 0.33 to 3.3 µM; in the test on U937 cancer cell line (setting [2]), 0.33 to 3.3 µM; with HUT cancer cell line, 0.33 to 3.3 µM.
As for `COc1ccc2[nH]c3c(c2c1)CCN(C(=O)CCCCCCC(=O)NO)C3C(=O)N[C@H](C(=O)O)c1ccccc1` (stereo partly drawn) [Compound 12, (S)-{[2-(7-Hydroxycarbamoyl-heptanoyl)-6-methoxy-2,3,4,9-tetrahydro-1H-beta-carboline-1-carbonyl]-amino}-phenyl-acetic acid], the IC50 in test [1] was 101 to 1000 nM; with Hela cancer cell line (Homo sapiens, HeLa), over 3.3 µM; with U937 cancer cell line (setting [2]), over 3.3 µM; in the test with HUT cancer cell line it was over 3.3 µM.
With `COc1ccc2[nH]c3c(c2c1)CCN(C(=O)CCCCCCC(=O)NO)C3C(=O)N[C@H](C(=O)OC1CCCC1)c1ccccc1` (stereo partly drawn) [Compound 13, (S)-{[2-(7-Hydroxycarbamoyl-heptanoyl)-6-methoxy-2,3,4,9-tetrahydro-1H-beta-carboline-1-carbonyl]amino}-phenyl-acetic acid cyclopentyl ester], the IC50 in test [1] is 101 to 1000 nM; in the test on Hela cancer cell line, over 3.3 µM; with U937 cancer cell line (U937 cells) it was 0.33 to 3.3 µM; with HUT cancer cell line, 0.33 to 3.3 µM.
In the case of `COc1ccc2[nH]c3c(c2c1)CCN(C(=O)CCCCCCC(=O)NO)C3C(=O)N[C@H](C(=O)O)c1ccccc1` (stereo partly drawn) [Compound 14, (S)-{[2-(7-Hydroxycarbamoyl-heptanoyl)-6-methoxy-2,3,4,9-tetrahydro-1H-beta-carboline-1-carbonyl]-amino}-phenyl-acetic acid], the concentration for half-maximal inhibition (IC50) in test [1] was 101 to 1000 nM; in the test on Hela cancer cell line, over 3.3 µM; in the test on U937 cancer cell line (U937 cells) it was over 3.3 µM; with HUT cancer cell line it was over 3.3 µM.
Regarding `O=C(CCCCCCC(=O)N1CCc2ccc(C(=O)N[C@H](C(=O)OC3CCCC3)c3ccccc3)cc2C1)NO` [Compound 15, (S)-{[2-(7-Hydroxycarbamoyl-heptanoyl)-1,2,3,4-tetrahydro-isoquinoline-7-carbonyl]-amino}-phenyl-acetic acid cyclopentyl ester], the IC50 was over 1000 nM in test [1]; over 3.3 µM in the test on Hela cancer cell line (Homo sapiens, HeLa); 0.33 to 3.3 µM with U937 cancer cell line (setting [2]); 0.33 to 3.3 µM in the test with HUT cancer cell line.
On to `O=C(CCCCCCC(=O)N1CCc2ccc(C(=O)N[C@H](C(=O)O)c3ccccc3)cc2C1)NO` [Compound 16, (S)-{[2-(7-Hydroxycarbamoyl-heptanoyl)-1,2,3,4-tetrahydro-isoquinoline-7-carbonyl]-amino}-phenyl-acetic acid], for which the IC50 is over 1000 nM in test [1]; over 3.3 µM in the test on Hela cancer cell line (Homo sapiens, HeLa); over 3.3 µM with U937 cancer cell line (setting [2]); over 3.3 µM in the test with HUT cancer cell line.
With `O=C(CCCCCCC(=O)Nc1ccc(C(=O)N[C@H](C(=O)OC2CCCC2)c2ccccc2)cc1)NO` [Compound 17, (S)-[4-(7-Hydroxycarbamoyl-heptanoylamino)-benzoylamino]-phenyl-acetic acid cyclopentyl ester], the IC50 in test [1] is 101 to 1000 nM; with Hela cancer cell line (Homo sapiens, HeLa), over 3.3 µM; in the test on U937 cancer cell line (setting [2]) it was 0.33 to 3.3 µM; in the test with HUT cancer cell line, 0.33 to 3.3 µM.
On to `O=C(CCCCCCC(=O)Nc1ccc(C(=O)N[C@H](C(=O)O)c2ccccc2)cc1)NO` [Compound 18, (S)-[4-(7-Hydroxycarbamoyl-heptanoylamino)-benzoylamino]-phenyl-acetic acid], for which the IC50 was 101 to 1000 nM in test [1]; over 3.3 µM in the test on Hela cancer cell line (Homo sapiens, HeLa); over 3.3 µM in the test on U937 cancer cell line (setting [2]); over 3.3 µM with HUT cancer cell line.

The values are drawn from patent publication US9133104B2 (Chroma Therapeutics Ltd., priority 2005, dated 2015).
